{
  "source": "patent US20240025906A1",
  "about": "(NEURON23, INC., priority 2022, published 2024)",
  "key": {"TYK2 JH2": {"target": "T1, TYK2 JH2 (Homo sapiens, UniProt P29597)", "T1 construct": "purchased DiscoverX (KINOMEscan KdELECT service); host or cells: E. coli BL21-derived (T7 phage display) or HEK-293", "T1 sequence (P29597 589-875 limits assumed)": "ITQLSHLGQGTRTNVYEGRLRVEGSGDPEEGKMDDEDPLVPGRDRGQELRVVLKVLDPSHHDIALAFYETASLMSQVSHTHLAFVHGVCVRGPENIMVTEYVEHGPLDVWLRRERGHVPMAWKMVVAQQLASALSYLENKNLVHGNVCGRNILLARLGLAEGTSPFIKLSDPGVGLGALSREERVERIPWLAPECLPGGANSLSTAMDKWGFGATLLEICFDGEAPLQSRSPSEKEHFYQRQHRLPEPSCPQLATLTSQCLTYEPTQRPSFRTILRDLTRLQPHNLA", "experiment": "TYK2 JH2 binding assay (KINOMEscan KdELECT competitive binding)", "details": "TYK2 JH2 domain", "in_short": "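JH2-domain fragment, expressed as T7 phage tag in BL21-derived E. coli or DNA-tagged from HEK-293, competed with test compound against bead-immobilized biotinylated ligand in binding buffer (0.9% DMSO). 1 h shaking at room temperature; bound kinase eluted with 0.5 μM free ligand and quantified by qPCR. Kd from 11-point 3-fold dilutions.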"}, "[1]": {"test_system": "JAK1/TYK2 pSTAT5 (Tyr694/699) in THP-1 cell line", "experiment": "IFNa-stimulated JAK1/TYK2 pSTAT5 (Tyr694/699) inhibition cellular assay, AlphaLISA", "format": "cell-based", "details": "Homo sapiens, THP-1 cells, AlphaLISA (Assay B)", "in_short": "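THP-1 cells (2e4/well) in HBSS preincubated 1 h at 37° C. with compound (final 10000–0.04 nM, 8 points, 6-fold), then stimulated with IFNa (100 ng/mL stock) for 30 min before lysis. pSTAT5 (Tyr694/699) read by AlphaLISA at 615 nm; IC50 from four-parameter logistic fit with bottom fixed at 0 and Hill slope at −1.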"}, "[2]": {"details": "KINOMEscan KdELECT (Assay A), read-out: Biochemical TYK2_JH2_Kd"}, "[3]": {"details": "IFNa-stimulated, read-out: Cellular THP1_IFNa-pSTATS_IC50"}, "[4]": {"details": "KINOMEscan KdELECT (Assay A), read-out: Biochemical TYK2_DiscoverX_JH2_BND_Kd"}, "[5]": {"details": "IFNa-stimulated, read-out: Cellular_THP1_IFNa-pSTATS_TYK2"}, "[6]": {"details": "IFNa-stimulated pSTAT5 (Tyr694/699), read-out: Cellular_THP1_IFNa-pSTATS_TYK2"}, "[7]": {"details": "DiscoverX KINOMEscan KdELECT (Assay A), read-out: Biochemical TYK2_DiscoverX_JH2_BND_Kd"}},
  "note": "Read-outs that look alike come from different tables or passages of the source.",
  "data": [
    {"compound": "C/C=C/c1cnc(NC)c2cnc(NC(=O)C3CC3)cc12", "note": "[Example 129, (E)-N-(8-(methylamino)-5-(prop-1-en-1-yl)-2,7-naphthyridin-3-yl)cyclopropanecarboxamide]", "values": [
      {"measurement": "Kd", "setting": "TYK2 JH2; [2]", "value": "≤ 0.1", "unit": "µM"},
      {"measurement": "IC50", "setting": "[1]; [3]", "value": "> 0.5", "unit": "µM"}
    ]},
    {"compound": "CNc1ncc(C#Cc2ccc3c(c2)ncn3CCCC#N)c2cc(NC(=O)C3CC3)ncc12", "note": "[Example 695, N-(5-((1-(3-cyanopropyl)-1H-benzo[d]imidazol-5-yl)ethynyl)-8-(methylamino)-2,7-naphthyridin-3-yl)cyclopropanecarboxamide]", "values": [
      {"measurement": "Kd", "setting": "TYK2 JH2; [4]", "value": "≤ 0.1", "unit": "µM"},
      {"measurement": "IC50", "setting": "[1]; [5]", "value": "≤ 0.5", "unit": "µM"}
    ]},
    {"compound": "CNc1ncc(-c2nc3cc(N4CCO[C@@H](C)C4)ccc3o2)c2cc(NC(=O)C3CC3)nnc12", "note": "[Example 890, (S)—N-(8-(methylamino)-5-(5-(2-methylmorpholino)benzo[d]oxazol-2-yl)pyrido[3,4-c]pyridazin-3-yl)cyclopropanecarboxamide]", "values": [
      {"measurement": "Kd", "setting": "TYK2 JH2; [4]", "value": "≤ 0.1", "unit": "µM"},
      {"measurement": "IC50", "setting": "[1]; [5]", "value": "≤ 0.5", "unit": "µM"}
    ]},
    {"compound": "CNc1ncc(C#Cc2c(C)nn(C)c2C)c2cc(NC(=O)C3CC3)ncc12", "note": "[Example 1018, N-(8-(methylamino)-5-((1,3,5-trimethyl-1H-pyrazol-4-yl)ethynyl)-2,7-naphthyridin-3-yl)cyclopropanecarboxamide]", "values": [
      {"measurement": "Kd", "setting": "TYK2 JH2; [4]", "value": "≤ 0.1", "unit": "µM"},
      {"measurement": "IC50", "setting": "[1]; [6]", "value": "≤ 0.5", "unit": "µM"}
    ]},
    {"compound": "O=C(Nc1cc2c(-c3ccccc3)cnc(Cl)c2cn1)C1CC1", "note": "[Example 95, N-(8-chloro-5-phenyl-2,7-naphthyridin-3-yl)cyclopropanecarboxamide]", "values": [
      {"measurement": "Kd", "setting": "TYK2 JH2; [2]", "value": "0.1 to 1", "unit": "µM"},
      {"measurement": "IC50", "setting": "[1]; [3]", "value": "> 0.5", "unit": "µM"}
    ]},
    {"compound": "CNc1ncc(-c2nc3c(OC4CC4)cccc3o2)c2cc(NC(=O)C3CC3)ncc12", "note": "[Example 222, N-(5-(4-cyclopropoxybenzo[d]oxazol-2-yl)-8-(methylamino)-2,7-naphthyridin-3-yl)cyclopropanecarboxamide]", "values": [
      {"measurement": "Kd", "setting": "TYK2 JH2; [7]", "value": "≤ 0.1", "unit": "µM"},
      {"measurement": "IC50", "setting": "[1]; [5]", "value": "≤ 0.5", "unit": "µM"}
    ]},
    {"compound": "CNc1ncc(-c2nc3c(o2)CCC(OC)C3)c2cc(NC(=O)C3CC3)ncc12", "note": "(centres unmarked) [Example 874, N-(5-(5-methoxy-4,5,6,7-tetrahydrobenzo[d]oxazol-2-yl)-8-(methylamino)-2,7-naphthyridin-3-yl)cyclopropanecarboxamide]", "values": [
      {"measurement": "Kd", "setting": "TYK2 JH2; [4]", "value": "≤ 0.1", "unit": "µM"},
      {"measurement": "IC50", "setting": "[1]; [5]", "value": "≤ 0.5", "unit": "µM"}
    ]},
    {"compound": "CNc1ncc(-c2nc3cc(OCC4COC4)ccc3o2)c2cc(NC(=O)C3CC3)ncc12", "note": "[Example 336, N-(8-(methylamino)-5-(5-(oxetan-3-ylmethoxy)benzo[d]oxazol-2-yl)-2,7-naphthyridin-3-yl)cyclopropanecarboxamide]", "values": [
      {"measurement": "Kd", "setting": "TYK2 JH2; [7]", "value": "≤ 0.1", "unit": "µM"},
      {"measurement": "IC50", "setting": "[1]; [5]", "value": "≤ 0.5", "unit": "µM"}
    ]},
    {"compound": "CNc1ncc(-c2ccn(CC3CCSCC3)n2)c2cc(NC(=O)C3CC3)ncc12", "note": "[Example 153A, N-(8-(methylamino)-5-(1-((tetrahydro-2H-thiopyran-4-yl)methyl)-1H-pyrazol-3-yl)-2,7-naphthyridin-3-yl)cyclopropanecarboxamide]", "values": [
      {"measurement": "Kd", "setting": "TYK2 JH2; [2]", "value": "≤ 0.1", "unit": "µM"},
      {"measurement": "IC50", "setting": "[1]; [3]", "value": "> 0.5", "unit": "µM"}
    ]},
    {"compound": "CNc1ncc(-c2nc3cc(C(N)=O)ccc3o2)c2cc(NC(=O)C3CC3)ncc12", "note": "[Example 237, 2-(6-(cyclopropanecarboxamido)-1-(methylamino)-2,7-naphthyridin-4-yl)benzo[d]oxazole-5-carboxamide]", "values": [
      {"measurement": "Kd", "setting": "TYK2 JH2; [7]", "value": "≤ 0.1", "unit": "µM"},
      {"measurement": "IC50", "setting": "[1]; [5]", "value": "≤ 0.5", "unit": "µM"}
    ]},
    {"compound": "CNc1ncc(-c2nc3ccc(N4C5CCC4COC5)cn3n2)c2cc(NC(=O)C3CC3)ncc12", "note": "[Example 487, N-(5-(6-(3-oxa-8-azabicyclo[3.2.1]octan-8-yl)-[1,2,4]triazolo[1,5-a]pyridin-2-yl)-8-(methylamino)-2,7-naphthyridin-3-yl)cyclopropanecarboxamide]", "values": [
      {"measurement": "Kd", "setting": "TYK2 JH2; [7]", "value": "≤ 0.1", "unit": "µM"},
      {"measurement": "IC50", "setting": "[1]; [5]", "value": "≤ 0.5", "unit": "µM"}
    ]},
    {"compound": "CNc1nc(C)c(C#Cc2ccc(OC)cc2)c2cc(NC(=O)C3CC3)ncc12", "note": "[Example 781, N-(5-((4-methoxyphenyl)ethynyl)-6-methyl-8-(methylamino)-2,7-naphthyridin-3-yl)cyclopropanecarboxamide]", "values": [
      {"measurement": "Kd", "setting": "TYK2 JH2; [4]", "value": "≤ 0.1", "unit": "µM"},
      {"measurement": "IC50", "setting": "[1]; [5]", "value": "> 0.5", "unit": "µM"}
    ]},
    {"compound": "CNc1ncc(C#Cc2cn(C(F)F)c(C)n2)c2cc(NC(=O)C3CC3)ncc12", "note": "[Example 1006, N-(5-((1-(difluoromethyl)-2-methyl-1H-imidazol-4-yl)ethynyl)-8-(methylamino)-2,7-naphthyridin-3-yl)cyclopropanecarboxamide]", "values": [
      {"measurement": "Kd", "setting": "TYK2 JH2; [4]", "value": "≤ 0.1", "unit": "µM"},
      {"measurement": "IC50", "setting": "[1]; [6]", "value": "≤ 0.5", "unit": "µM"}
    ]}
  ]
}
